Literature values as cited in US20080014263A1, “Amorphous eprosartan mesylate and process for the preparation thereof” (Glenmark Pharmaceuticals Limited, priority 2006, published 2008).
Where a name gives a salt, the structure may show the parent alone.

Conditions: white to off-white free-flowing crystalline powder

- solubility in ethanol (ethanol): freely soluble
- solubility in water (water): insoluble
SMILES: CCCCc1ncc(/C=C(\Cc2cccs2)C(=O)O)n1Cc1ccc(C(=O)O)cc1 [Eprosartan mesylate, monomethanesulphonate of (E)-2-butyl-1-(p-carboxybenzyl)-α-2-thienylmethylimidazole-5-acrylic acid]
